The values below come from patent US10206900B2, “Treatments for fibrotic diseases” (MOR RESEARCH APPLICATIONS LTD., priority 2013, dated 2019).

The subject of one assay is RPE cells. Kind of assay: Cell size / morphology (rhodamine-phalloidin staining) upon TGF-β1. To be noted: 5Z-7-oxozeaenol 1 μM or SB431542 10 μM prior to TGF-β1. It is filed as cell-based. How it is done:
FIG. 3A: RPE cells were plated on fibronectin-coated glass coverslips, serum-starved for 16 hours, pretreated with 5Z-7-oxozeaenol (1 μM) or SB431542 (10 μM), or DMSO for 1 hour, then treated with or without TGF-β1 for 2 days. Following treatment, the cells were stained with rhodamine-phalloidin (actin fibers-red) and DAPI (blue) and visualized by confocal microscopy. Scale bars: […]. FIG. 3B: Serum-starved RPE cells pretreated with 5Z-7-oxozeaenol (1 μM) or DMSO for 1 hour, and were exposed to TGF-β as in FIG. 3A. Total RNA was extracted at each time point and qPCR was performed. Transcription levels of CTGF were determined after 6 h, 16 h and 24 h. Bars represent the specific mRNA amount relative to GAPDH mRNA in the same samples. All experiments were performed in triplicates. A representative histogram from two independent experiments is shown. FIG. 3C: RPE cells were plated and treated as in FIG. 3A. Following treatment, the cells were immunostained with E-cadherin antibodies (green) and DAPI (blue). Representative photographs of two independent experiments are shown. In addition to the secretion of MMPs and increased migratory capacity, several morphological changes underlie EMT (Lamouille et al., I 2007, 178:437-451). […]

Another assay concerns MMP-9. Kind of assay: MMP-9 activity by gelatin zymography in RPE cell supernatants. To be noted: RPE cells, SB431542 10 μM pretreatment, TGF-β1 2.5 ng/ml, 24 hours. It is filed as cell-based. The protocol: FIGS. 2A-2C TAK1 regulates RPE cells EMT phenotype upon TGF-β stimulation. FIG. 2A: RPE cells were serum-starved for 16 hours, pretreated with 5Z-7-oxozeaenol (1 μM) or left untreated for 1 hour. The cells were then treated with TGF-β1 (2.5 ng/ml) as described herein for 24 h and immunostained with α-SMA antibodies (red) and DAPI (blue). Representative photographs of three independent experiments. The histogram in the bottom panel represents quantification of α-SMA antibody pixel intensity. FIG. 2B: RPE cells were serum-starved for 16 hours, then treated with mitomycin C (10 ng/ml) for 3 h. Thereafter, pretreated with 5Z-7-oxozeaenol (1 μM) or Dimethyl sulfoxide (DMSO) for 1 hour. Following this process a scratch was performed in the cell monolayer and the serum free medium was supplemented with TGF-β1 (2.5 ng/ml) or left unsupplemented. Scratches were photo-documented at the indicated times (top panel) and their width was measured using Image-J software. […] Bars are Mean±SD. FIG. 2C: RPE cells were serum-starved for 16 hours then pretreated with 5Z-7-oxozeaenol (1 μM) or SB431542 (10 μM), or DMSO for 1 hour. […] Total MMP-9 activities were processed by gelatin zymography (top panel) and the band intensity values were calculated by Quantity One® 1-D analysis software. […] Data is expressed as the Mean±SD.

The structures appear in SMILES notation.

Turning to `NC(=O)c1ccc(-c2nc(-c3ccc4c(c3)OCO4)c(-c3ccccn3)[nH]2)cc1` [SB431542], the “TGF-β1-induced increase in cell size (hypertrophic RPE cells)” value in the assay with RPE cells is given as “abolished the increase in cell size”. For the same molecule, the “activation of MMP-9 by TGF-β1” value in the assay on MMP-9 is listed as “completely abolished the activation of MMP-9”.
